System: algae (Chlamydomonas)
Assay: NM7O added to a suspension of algae (algaecide test)
Assay type: cell-based
Conditions: algae 1×10^6 cells/ml in tubes
Source text: The color change can serve as a valuable indicator of activity, as untreated NM7O remains suspended and violet colored.
This may be due to the requirement of direct contact between the product and the algae.

O=S(=O)([O-])[O-].[Cu+2] [copper sulfate]
effect on algal suspension (appearance of the solution): the solution turned blue
microscopic evaluation of the sediment (appearance of treated cells): appeared intact with full cellular contents
